Read-outs that look alike come from different tables or passages of the source.
What was measured:
[1] = test system: Staphylococcus aureus ATCC 6538; assay: Antibiotic disc assay (zones of inhibition), S. aureus; type: cell-based; settings: for zone size, ciprofloxacin 5 μg disc: terpenoid at 0.5 mM in agar overlay
Experimental: (§1) Erwinia sp. #351 was from Presque Isle Cultures, Presque Isle, Pa. Lactobacillus fermentum ATCC 14931, zygosaccharomyces bailii ATCC 60483 and E. coli ATCC 25922 (National Committee on Clinical Laboratory Standards antibiotic test strain) were from the American Type Culture Collection, Manassas, Va. Staphylococcus aureus ATCC 6538 and Enterococcus faecalis Bact. 4025 were obtained from the UW-Madison Department of Bacteriology culture collection. All bacteria except for L. fermentum were grown statically in screwcap tubes containing 10 ml Trypticase Soy Broth (BBL, Cockeysville, Md.) for 20-22 hours at 30° C. L. fermentum was grown statically in screwcap tubes containing 10 ml MRS broth (Difco) for 20-22 hours at 30° C. Cultures of Z. bailii were grown in 125 ml culture flasks containing 50 ml YM broth (Difco) on a rotary shaker set at 200 rpm for 20-22 hours at 25° C.
(§2) The activity of terpenoid compounds toward facilitating susceptibility to antibiotics was assessed using an antibiotic disc assay. For this assay, cells from an overnight growth were suspended to a known concentration in 0.5 ml 67 mM phosphate buffer, pH 7.0 and mixed with 4.5 ml 0.7% Iso-Sensitest agar (Oxoid, Basingstoke, Hampshire, England) overlay tempered to 50° C. Terpenoid compounds dissolved in absolute ethanol were added to the cell/agar overlay mixture yielding final concentrations of 0.5, 1.0 or 2.0 mM, depending on the experiment. The final concentration of ethanol in cell overlays was 0.5% and the final concentration of target cells was ca. 10^6 cfu/ml. After thorough vortexing, terpenoid-containing cell overlays were poured over hardened Iso-Sensitest agar (2% agar) plates and allowed to set. […] After incubation, zones of inhibition were measured with a ruler from the bottom of the plates.

[2] = test system: Enterococcus faecalis Bact. 4025; type: cell-based; settings: E. faecalis
Experimental: as §1, §2

[3] = antibiotic disc with 0.5 mM apritone (A) in agar overlay
[4] = antibiotic disc with 0.5 mM bisabolol (B) in agar overlay
[5] = antibiotic disc with 0.5 mM nerolidol (N) in agar overlay
[6] = antibiotic disc with 1 mM apritone (A) in agar overlay
[7] = antibiotic disc with 1 mM nerolidol (N) in agar overlay
[8] = antibiotic disc with 2 mM apritone (A) in agar overlay
[9] = antibiotic disc with 2 mM bisabolol (B) in agar overlay
[10] = antibiotic disc with 2 mM nerolidol (N) in agar overlay
[11] = antibiotic disc, control (no sesquiterpenoid in agar overlay)
[12] = antibiotic disc, control (no sesquiterpenoid)
[13] = antibiotic disc with 1 mM bisabolol (B) in agar overlay

Molecule: gentamicin
- Diameters of zones of inhibition [1, 3]: 20 millimeters
- Diameters of zones of inhibition [1, 4]: 22 millimeters
- Diameters of zones of inhibition [1, 5]: 24 millimeters
- Diameters of zones of inhibition [1, 6]: 21 millimeters
- Diameters of zones of inhibition [1, 7]: 26 millimeters
- Diameters of zones of inhibition [1, 8]: 23 millimeters
- Diameters of zones of inhibition [1, 9]: 29 millimeters
- Diameters of zones of inhibition [1, 10]: 35 millimeters
- Diameters of zones of inhibition [1, 11]: 18.5 millimeters
- Diameters of zones of inhibition [2, 6]: 11 millimeters
- Diameters of zones of inhibition [2, 7]: 17.5 millimeters
- Diameters of zones of inhibition [2, 12]: 9 millimeters

Molecule: CN[C@H](CC(C)C)C(=O)N[C@H]1C(=O)N[C@@H](CC(N)=O)C(=O)N[C@H]2C(=O)N[C@H]3C(=O)N[C@H](C(=O)N[C@H](C(=O)O)c4cc(O)cc(O)c4-c4cc3ccc4O)[C@H](O)c3ccc(c(Cl)c3)Oc3cc2cc(c3O[C@@H]2O[C@H](CO)[C@@H](O)[C@H](O)[C@H]2O[C@H]2C[C@](C)(N)[C@H](O)[C@H](C)O2)Oc2ccc(cc2Cl)[C@H]1O [vancomycin]
- Diameters of zones of inhibition [1, 3]: 19 millimeters
- Diameters of zones of inhibition [1, 4]: 20 millimeters
- Diameters of zones of inhibition [1, 5]: 20 millimeters
- Diameters of zones of inhibition [1, 6]: 18 millimeters
- Diameters of zones of inhibition [1, 13]: 19 millimeters
- Diameters of zones of inhibition [1, 7]: 23.5 millimeters
- Diameters of zones of inhibition [1, 8]: 20 millimeters
- Diameters of zones of inhibition [1, 9]: 21 millimeters
- Diameters of zones of inhibition [1, 10]: 25 millimeters
- Diameters of zones of inhibition [1, 11]: 18 millimeters
- Diameters of zones of inhibition [2, 6]: 17 millimeters
- Diameters of zones of inhibition [2, 13]: 18 millimeters
- Diameters of zones of inhibition [2, 7]: 18 millimeters
- Diameters of zones of inhibition [2, 12]: 17 millimeters

Molecule: CC(C)=CCC/C(C)=C\CO [nerol]
- zone size, ciprofloxacin 5 μg disc [1]: 22 mm

Molecule: CC(C)=CCCC(C)=CC=O [citral]
- zone size, ciprofloxacin 5 μg disc [1]: 22 mm

Molecule: CC1=CC=C(C(C)C)CC1 [α-terpinene]
- zone size, ciprofloxacin 5 μg disc [1]: 22 mm

Molecule: CCC[C@@H]1C[C@@H](C(=O)N[C@@H]([C@H]2O[C@H](SC)[C@H](O)[C@@H](O)[C@H]2O)[C@H](C)Cl)N(C)C1 [clindamycin]
- Diameters of zones of inhibition [1, 3]: 22 millimeters
- Diameters of zones of inhibition [1, 4]: 24.5 millimeters
- Diameters of zones of inhibition [1, 5]: 23.5 millimeters
- Diameters of zones of inhibition [1, 6]: 25 millimeters
- Diameters of zones of inhibition [1, 13]: 27 millimeters
- Diameters of zones of inhibition [1, 7]: 31.5 millimeters
- Diameters of zones of inhibition [1, 8]: 27.5 millimeters
- Diameters of zones of inhibition [1, 9]: 32 millimeters
- Diameters of zones of inhibition [1, 10]: 35.5 millimeters
- Diameters of zones of inhibition [1, 11]: 22 millimeters
- Diameters of zones of inhibition [2, 6]: 12 millimeters
- Diameters of zones of inhibition [2, 13]: 11 millimeters
- Diameters of zones of inhibition [2, 7]: 11 millimeters
- Diameters of zones of inhibition [2, 12]: 12 millimeters

Molecule: C=CC(C)(O)CCC=C(C)C (stereo not shown) [linalool]
- zone size, ciprofloxacin 5 μg disc [1]: 22.5 mm

Molecule: CC(C)CCCC(C)CCO (stereo not shown) [tetrahydrogeraniol]
- zone size, ciprofloxacin 5 μg disc [1]: 22.5 mm

Molecule: CCC(C)(O)CCCC(C)C (stereo not shown) [tetrahydrolinalool]
- zone size, ciprofloxacin 5 μg disc [1]: 23 mm

Molecule: C=CC(=C)CCC=C(C)C [myrcene]
- zone size, ciprofloxacin 5 μg disc [1]: 21.5 mm

Molecule: CC12CCC(CC1)C(C)(C)O2 [cineole]
- zone size, ciprofloxacin 5 μg disc [1]: 23 mm

Molecule: CC(C)[C@@H]1CC[C@@H](C)CC1=O [menthone]
- zone size, ciprofloxacin 5 μg disc [1]: 23 mm

Molecule: CN(C)[C@@H]1C(O)=C(C(N)=O)C(=O)[C@@]2(O)C(O)=C3C(=O)c4c(O)cccc4[C@@](C)(O)[C@H]3C[C@@H]12 [tetracycline]
- Diameters of zones of inhibition [1, 3]: 25.5 millimeters
- Diameters of zones of inhibition [1, 4]: 25 millimeters
- Diameters of zones of inhibition [1, 5]: 25.5 millimeters
- Diameters of zones of inhibition [1, 6]: 26 millimeters
- Diameters of zones of inhibition [1, 13]: 26 millimeters
- Diameters of zones of inhibition [1, 7]: 26.5 millimeters
- Diameters of zones of inhibition [1, 8]: 27.5 millimeters
- Diameters of zones of inhibition [1, 9]: 30 millimeters
- Diameters of zones of inhibition [1, 10]: 32.5 millimeters
- Diameters of zones of inhibition [1, 11]: 21.5 millimeters
- Diameters of zones of inhibition [2, 6]: 22.5 millimeters
- Diameters of zones of inhibition [2, 13]: 24 millimeters
- Diameters of zones of inhibition [2, 7]: 23.5 millimeters
- Diameters of zones of inhibition [2, 12]: 22 millimeters

Molecule: C=C(C)[C@H]1CC=C(C)CC1 [limonene]
- zone size, ciprofloxacin 5 μg disc [1]: 22 mm

Molecule: CC(C)=CCCC(C)CC=O (stereo not shown) [citronellal]
- zone size, ciprofloxacin 5 μg disc [1]: 22 mm

Molecule: CC(C)=CCC/C(C)=C/CO [geraniol]
- zone size, ciprofloxacin 5 μg disc [1]: 23 mm

Molecule: C=C1C2CCC(C2)C1(C)C (stereo not shown) [camphene]
- zone size, ciprofloxacin 5 μg disc [1]: 22 mm

Molecule: CC[C@H]1OC(=O)[C@H](C)[C@@H](O[C@H]2C[C@@](C)(OC)[C@@H](O)[C@H](C)O2)[C@H](C)[C@@H](O[C@@H]2O[C@H](C)C[C@H](N(C)C)[C@H]2O)[C@](C)(O)C[C@@H](C)C(=O)[C@H](C)[C@@H](O)[C@]1(C)O [erythromycin]
- Diameters of zones of inhibition [1, 3]: 26 millimeters
- Diameters of zones of inhibition [1, 4]: 26 millimeters
- Diameters of zones of inhibition [1, 5]: 27 millimeters
- Diameters of zones of inhibition [1, 6]: 25 millimeters
- Diameters of zones of inhibition [1, 13]: 29 millimeters
- Diameters of zones of inhibition [1, 7]: 29.5 millimeters
- Diameters of zones of inhibition [1, 8]: 26.5 millimeters
- Diameters of zones of inhibition [1, 9]: 30 millimeters
- Diameters of zones of inhibition [1, 10]: 33 millimeters
- Diameters of zones of inhibition [1, 11]: 24 millimeters
- Diameters of zones of inhibition [2, 6]: 18 millimeters
- Diameters of zones of inhibition [2, 13]: 19 millimeters
- Diameters of zones of inhibition [2, 7]: 19.5 millimeters
- Diameters of zones of inhibition [2, 12]: 18.5 millimeters

Molecule: CC(C)=CCCC(C)CCO (stereo not shown) [citronellol]
- zone size, ciprofloxacin 5 μg disc [1]: 22.5 mm

Reference: patent publication US20020165130A1, “Method of sensitizing microbial cells to antimicrobial compounds” (priority 1998, published 2002)
